Test results as given in patent publication US11697646B2, “Triazole N-linked carbamoyl cyclohexyl acids as LPA antagonists” (BRISTOL-MYERS SQUIBB COMPANY, priority 2017, dated 2023).

Experiments:
IPF patients = settings: 26-week clinical trial in IPF patients; cited from earlier work
plasma histamine = assay: LPA challenge with plasma histamine evaluation (acute in vivo histamine assay); settings: 1 mg/kg dose
Experimental: LPA Challenge with Plasma Histamine Evaluation.
Compound is dosed orally p.o. 2 hours to CD-1 female mice prior to the LPA challenge. The mice are then dosed via tail vein (IV) with 0.15 mL of LPA in 0.1% BSA/PBS (2 μg/μL). Exactly 2 minutes following the LPA challenge, the mice are euthanized by decapitation and the trunk blood is collected. These samples are collectively centrifuged and individual 75 μL samples are frozen at −20° C. until the time of the histamine assay.
The plasma histamine analysis was run by standard EIA (Enzyme Immunoassay) methods. Plasma samples were thawed and diluted 1:30 in 0.1% BSA in PBS. The EIA protocol for histamine analysis as outlined by the manufacturer was followed (Histamine EIA, Oxford Biomedical Research, EA #31).
The LPA used in the assay is formulated as follows: LPA (1-oleoyl-2-hydroxy-sn-glycero-3-phosphate (sodium salt), 857130P, Avanti Polar Lipids) is prepared in 0.1% BSA/PBS for total concentration of 2 μg/μL, 13 mg of LPA is weighed and 6.5 mL 0.1% BSA added, vortexed and sonicated for −1 hour until a clear solution is achieved.

human LPA1 = target: T1, human LPA1 (Homo sapiens, UniProt Q92633); assay: LPA1 functional antagonist assay (calcium flux); type: cell-based; settings: CHO cells overexpressing human LPA1; calcium flux induced by 10 nM LPA; read-out: hLPA1 IC50
T1 construct: expressed in transfected cells; host or cells: Chinese hamster ovary (CHO) cells
T1 sequence (Q92633 whole entry): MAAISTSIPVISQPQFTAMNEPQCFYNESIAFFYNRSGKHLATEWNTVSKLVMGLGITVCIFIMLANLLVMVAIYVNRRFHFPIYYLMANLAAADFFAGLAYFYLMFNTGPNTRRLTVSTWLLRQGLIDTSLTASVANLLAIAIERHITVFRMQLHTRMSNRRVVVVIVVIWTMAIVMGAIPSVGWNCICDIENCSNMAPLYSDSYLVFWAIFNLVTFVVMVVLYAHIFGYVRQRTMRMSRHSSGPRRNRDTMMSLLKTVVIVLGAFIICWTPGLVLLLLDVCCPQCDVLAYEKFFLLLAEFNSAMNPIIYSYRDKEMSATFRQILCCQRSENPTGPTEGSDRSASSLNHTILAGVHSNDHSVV
Experimental: The effectiveness of compounds of the present invention as LPA1 inhibitors can be determined in an LPA1 functional antagonist assay as follows:
The cells were then equilibrated to room temperature for 30 minutes before the assay. […] IC50 values were determined by fitting data to a 4-parameter logistic equation (GraphPad Prism, San Diego Calif.).

nerve-injured mice = settings: pretreatment; cited from earlier work
[1] = tested on: human foetal lung fibroblasts; settings: induced by BAL obtained from IPF patients; cited from earlier work
UUO mice = settings: cited from earlier work
[2] = tested on: mouse epithelial renal cell line, MCT; settings: LPA treatment of MCT cells, co-treatment; cited from earlier work
[3] = tested on: pancreatic cancer cell lines; settings: in response to LPA and peritoneal fluid (ascites) from pancreatic cancer patients; cited from earlier work
[4] = tested on: highly peritoneal metastatic pancreatic cancer cell line; settings: LPA-induced and ascites-induced; cited from earlier work

| SMILES | IC50 (human LPA1) [nM] | further results |
| --- | --- | --- |
| Cc1noc(-c2ccc(-c3ccc(C4(C(=O)O)CC4)cc3)cc2)c1NC(=O)O[C@H](C)c1ccccc1 [BMS-986020] | – | rate of FVC (forced vital capacity) decline (IPF patients): significantly reduce |
| Cc1nc(-c2nnn(C)c2CNC(=O)OCc2ccccc2)ccc1O[C@H]1CCC[C@H](C(=O)O)C1 [Example 34, (1S,3S)-3-((6-(5-((((benzyloxy)carbonyl)amino)methyl)-1-methyl-1H-1,2,3-triazol-4-yl)-2-methylpyridin-3-yl)oxy)cyclohexane-1-carboxylic acid] | 9 | acute in vivo histamine assay in CD-1 mice: % histamine (plasma histamine): −96% |
| CCCOC(=O)Nc1c(-c2ccc(O[C@H]3CCC[C@H](C(=O)O)C3)cn2)nnn1C [Example 221, (1S,3S)-3-((6-(1-methyl-5-((pro-poxy-carbonyl)amino)-1H-1,2,3-triazol-4-yl)pyridin-3-yl)oxy)cyclohexane-1-carboxylic acid] | 42 | – |
| CCCCOC(=O)Nc1c(-c2ccc(O[C@H]3CCC[C@H](C(=O)O)C3)c(C)n2)nnn1C [Example 222, (1S,3S)-3-((6-(5-((butoxycarbonyl)amino)-1-methyl-1H-1,2,3-triazol-4-yl)-2-methylpyridin-3-yl)oxy)cyclohexane-1-carboxylic acid] | 21 | – |
| Cc1nc(-c2nnn(C)c2NC(=O)OCC2(C)CC2)ccc1O[C@H]1CCC[C@H](C(=O)O)C1 [Example 224, (1S,3S)-3-((2-methyl-6-(1-methyl-5-((((1-methylcyclopropyl)methoxy)carbonyl)amino)-1H-1,2,3-triazol-4-yl)pyridin-3-yl)oxy)cyclohexane-1-carboxylic acid] | 60 | – |
| Cc1nc(-c2nnn(C)c2NC(=O)OC2CC3(CC3)C2)ccc1O[C@H]1CCC[C@H](C(=O)O)C1 [Example 225, (1S,3S)-3-((2-methyl-6-(1-methyl-5-(((spiro[2.3]hexan-5-yloxy)carbonyl)amino)-1H-1,2,3-triazol-4-yl)pyridin-3-yl)oxy)cyclohexane-1-carboxylic acid] | 181 | – |
| Cc1nc(-c2nnn(C)c2CNS(=O)(=O)NCC2CCCC2)ccc1O[C@H]1CCC[C@H](C(=O)O)C1 [Example 226, (1S,3S)-3-((6-(5-(((N-(cyclopentylmethyl)sulfamoyl)amino)methyl)-1-methyl-1H-1,2,3-triazol-4-yl)-2-methylpyridin-3-yl)oxy)cyclohexane-1-carboxylic acid] | 1100 | – |
| Cc1nc(-c2nnn(C)c2CNS(=O)(=O)NCc2ccccc2)ccc1O[C@H]1CCC[C@H](C(=O)O)C1 [Example 227, (1S,3S)-3-((6-(5-(((N-benzyl-sulfamoyl)amino)methyl)-1-methyl-1H-1,2,3-triazol-4-yl)-2-methyl-pyridin-3-yl)oxy)cyclohexane-1-carboxylic acid] | 1800 | – |
| Cc1nc(-c2nnn(C)c2CN(C)S(=O)(=O)N(C)Cc2ccccc2)ccc1O[C@H]1CCC[C@H](C(=O)O)C1 [Example 228, (1S,3S)-3-((6-(5-(((N-benzyl-N-methyl-sulfamoyl)(methyl)amino)methyl)-1-methyl-1H-1,2,3-triazol-4-yl)-2-methylpyridin-3-yl)oxy)cyclohexane-1-carboxylic acid] | 218 | – |
| CCCCN(C)S(=O)(=O)N(C)Cc1c(-c2ccc(O[C@H]3CCC[C@H](C(=O)O)C3)c(C)n2)nnn1C [Example 229, (1S,3S)-3-((6-(5-(((N-butyl-N-methyl-sulfamoyl)(methyl)amino)methyl)-1-methyl-1H-1,2,3-triazol-4-yl)-2-methylpyridin-3-yl)oxy)cyclohexane-1-carboxylic acid] | 110 | – |
| CCc1nc(-c2nnn(C)c2NC(=O)OCC(C)C)ccc1O[C@H]1CCC[C@H](C(=O)O)C1 [Example 230, (1S,3S)-3-{[2-ethyl-6-(1-methyl-5-{[(2-methylpropoxy)carbonyl]amino}-1H-1,2,3-triazol-4-yl)pyridin-3-yl]oxy}cyclohexane-1-carboxylic acid] | 17 | – |
| CCc1nc(-c2nnn(C)c2NC(=O)OCC2CC2)ccc1O[C@H]1CCC[C@H](C(=O)O)C1 [Example 231, (1S,3S)-3-{[6-(5-{[(cyclopropyl-methoxy)carbonyl}amino}-1-methyl-1H-1,2,3-triazol-4-yl)-2-ethylpyridin-3-yl]oxy}cyclohexane-1-carboxylic acid] | 28 | – |
| CCCCOC(=O)Nc1c(-c2ccc(O[C@H]3CCC[C@H](C(=O)O)C3)c(CC)n2)nnn1C [Example 232, (1 S,3 S)-3-[(6-{5-[(butoxycarbonyl)amino]-1-methyl-1H-1,2,3-triazol-4-yl}-2-ethylpyridin-3-yl)oxy]cyclo-hexane-1-carboxylic acid] | 12 | – |
| CCCOC(=O)Nc1c(-c2ccc(O[C@H]3CCC[C@H](C(=O)O)C3)c(CC)n2)nnn1C [Example 233, (1S,3S)-3-[(2-ethyl-6-{1-methyl-5-[(propoxycarbonyl)amino]-1H-1,2,3-triazol-4-yl}pyridin-3-yl)oxy]cyclo-hexane-1-carboxylic acid] | 1040 | – |
| Cc1nc(-c2nnn(C)c2CNC(=O)C(C)(C)Oc2ccccc2)ccc1O[C@H]1CCC[C@H](C(=O)O)C1 [Example 234, (1S,3S)-3-((2-methyl-6-(1-methyl-5-((2-methyl-2-phenoxypropanamido)methyl)-1H-1,2,3-triazol-4-yl)pyridin-3-yl)oxy)cyclohexane-1-carboxylic acid] | 392 | – |
| Cc1nc(-c2nnn(C)c2CNC(=O)CC2CCCC2)ccc1O[C@H]1CCC[C@H](C(=O)O)C1 [Example 235, (1S,3S)-3-((6-(5-((2-cyclopentylacetamido)methyl)-1-methyl-1H-1,2,3-triazol-4-yl)-2-methylpyridin-3-yl)oxy)cyclohexanecarboxylic acid] | 105 | – |
| Cn1nnc(-c2ccc(O[C@H]3CCC[C@H](C(=O)O)C3)cn2)c1CNC(=O)CC1CCCC1 [Example 236, (1S,3S)-3-((6-(5-((2-cyclopentylacetamido)methyl)-1-methyl-1H-1,2,3-triazol-4-yl)pyridin-3-yl)oxy)cyclohexanecarboxylic acid] | 569 | – |
| CCCCC(=O)NCc1c(-c2ccc(O[C@H]3CCC[C@H](C(=O)O)C3)c(C)n2)nnn1C [Example 237, (1S,3S)-3-((2-methyl-6-(1-methyl-5-(pentanamidomethyl)-1H-1,2,3-triazol-4-yl)pyridin-3-yl)oxy)cyclo-hexanecarboxylic acid] | 783 | – |
| Cc1nc(-c2nnn(C)c2CCNC(=O)Cc2ccccc2)ccc1O[C@H]1CCC[C@H](C(=O)O)C1 [Example 238, (1S,3S)-3-((2-methyl-6-(1-methyl-5-(2-(2-phenylacetamido)ethyl)-1H-1,2,3-triazol-4-yl)pyridin-3-yl)oxy)cyclohexane-1-carboxylic acid] | 138 | – |
| Cc1nc(-c2nnn(C)c2CCNC(=O)CCC(C)C)ccc1O[C@H]1CCC[C@H](C(=O)O)C1 [Example 240] | 1010 | – |
| C[C@@H](N)[C@H]1CC[C@H](C(=O)Nc2ccncc2)CC1 [Example Y-27632] | – | allodynia and hyperalgesia (nerve-injured mice): completely abolished |
| Cc1noc(-c2ccc(CSCCC(=O)O)cc2)c1NC(=O)OC(C)c1ccccc1Cl (stereo not drawn) [Ki16425] | – | chemotaxis of human foetal lung fibroblasts [1]: blocked; development of renal fibrosis (UUO mice): closely resembled the profile of LPA1 (−/−) mice; induction of CTGF expression [2]: almost completely suppressed; in vitro migration [3]: effectively blocked; invasion activity [4]: blocked |
